Converted amounts (≈) assume the structure as drawn.
What was measured:
[1] = Metabolic stability in human liver microsome assessed as intrinsic clearance at […] preincubated for 5 mins followed by NADPH addition and measured after 20 mins by LC-MS analysis; assay type: ADME; settings: liver microsomes, dose 2.5 µM, time 25 min, read-out: CLH
[2] = Clearance in CD-1 mouse at 1 mg/kg, iv measured upto 8 hrs by LC-MS/MS method; assay type: ADME, organism-based; settings: in vivo
[3] = tested on: MIA PaCa-2; assay: Antitumor activity against human MIA PaCa-2 cells harboring KRAS G12C mutant xenografted in athymic nude Foxn1nu mouse assessed as tumor growth inhibition at 30 mg/kg,po administrated for 28 days and measured every 3 to 4 days relative to control; assay type: functional; settings: time 28 day
[4] = Metabolic stability in mouse hepatocyte assessed as intrinsic clearance incubated for 1 to 2 hrs by LC-MS analysis; assay type: ADME, cell-based; settings: hepatocytes, time 1-2 hrs, read-out: CLH
[5] = Metabolic stability in mouse liver microsome assessed as intrinsic clearance at […] preincubated for 5 mins followed by NADPH addition and measured after 20 mins by LC-MS analysis; assay type: ADME; settings: liver microsomes, dose 2.5 µM, time 25 min, read-out: CLH
[6] = target: T1, Mitogen-activated protein kinase; ERK1/ERK2 (Homo sapiens, UniProt P27361+P28482); settings: KYSE520, time 1.0 hrs
T1 sequence (P27361 whole entry, looked up): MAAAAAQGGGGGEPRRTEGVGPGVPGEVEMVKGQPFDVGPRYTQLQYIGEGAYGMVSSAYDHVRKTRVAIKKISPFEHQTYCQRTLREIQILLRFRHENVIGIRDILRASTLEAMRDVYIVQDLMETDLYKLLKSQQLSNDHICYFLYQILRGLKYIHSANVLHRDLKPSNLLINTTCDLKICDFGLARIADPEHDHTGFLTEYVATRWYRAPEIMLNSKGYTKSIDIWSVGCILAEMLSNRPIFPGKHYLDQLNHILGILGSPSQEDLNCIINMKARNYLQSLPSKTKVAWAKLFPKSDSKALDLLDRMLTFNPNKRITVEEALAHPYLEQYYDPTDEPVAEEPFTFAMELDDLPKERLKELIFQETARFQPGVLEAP
T1 sequence (P28482 whole entry, looked up): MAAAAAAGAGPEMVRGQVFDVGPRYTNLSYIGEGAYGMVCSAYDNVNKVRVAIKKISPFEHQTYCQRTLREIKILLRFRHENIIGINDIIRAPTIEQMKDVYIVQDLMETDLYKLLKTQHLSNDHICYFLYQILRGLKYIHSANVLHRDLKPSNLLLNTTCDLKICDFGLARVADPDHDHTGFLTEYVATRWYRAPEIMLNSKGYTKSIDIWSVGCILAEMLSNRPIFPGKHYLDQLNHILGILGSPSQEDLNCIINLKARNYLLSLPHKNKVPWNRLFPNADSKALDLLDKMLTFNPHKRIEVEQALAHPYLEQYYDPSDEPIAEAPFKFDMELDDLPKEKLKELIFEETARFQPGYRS

[7] = AUC(0 to infinity) in CD-1 mouse at 10 mg/kg, po measured upto 24 hrs by LC-MS/MS method; assay type: ADME, organism-based; parameters: time < 24 hrs, dose 10 mg/kg, route po; settings: in vivo
[8] = Volume of distribution at steady state in CD-1 mouse at 1 mg/kg, iv measured upto 8 hrs by LC-MS/MS method; assay type: ADME, organism-based; settings: in vivo, read-out: Vdss
[9] = Toxicity in athymic nude Foxn1nu mouse xenografted with human MIA PaCa-2 cells harboring KRAS G12C mutant assessed as body weight loss at 30 to 100 mg/kg,po administrated for 28 days and measured every 3 to 4 days relative to control; assay type: organism-based; settings: in vivo, 672 h, dose 30-100 mg/kg, time 28 day
[10] = tested on: MIA PaCa-2; assay: Antitumor activity against human MIA PaCa-2 cells harboring KRAS G12C mutant xenografted in athymic nude Foxn1nu mouse assessed as tumor growth inhibition at 100 mg/kg,po administrated for 28 days and measured every 3 to 4 days relative to control; assay type: functional; settings: time 28 day
[11] = Permeability of compound from apical to basolateral side in LLC-PK1 cells incubated for 2 hrs by LC-MS/MS analysis; assay type: ADME, cell-based, Sus scrofa; settings: pig, read-out: permeability
[12] = Cmax in CD-1 mouse at 10 mg/kg, po measured upto 24 hrs by LC-MS/MS method; assay type: ADME, organism-based; parameters: dose 10 mg/kg, time < 24 hrs, route po; settings: in vivo
[13] = Solubility of the compound in FaSSIF at 1 mg/ml incubated for 24 hrs by LC-MS/MS analysis; assay type: physicochemical
[14] = target: T1, Mitogen-activated protein kinase; ERK1/ERK2; assay: Inhibition of ERK1/2 phosphorylation at Thr202/Tyr204 residues in human KYSE520 cells incubated for 1 hrs by Western blot analysis; assay type: cell-based
[15] = Metabolic stability in human hepatocyte assessed as intrinsic clearance incubated for 1 to 2 hrs by LC-MS analysis; assay type: ADME, cell-based; settings: hepatocytes, time 1-2 hrs, read-out: CLH
[16] = Half life in CD-1 mouse at 1 mg/kg, iv measured upto 8 hrs by LC-MS/MS method; assay type: ADME, organism-based; settings: in vivo
[17] = Tmax in CD-1 mouse at 10 mg/kg, po measured upto 24 hrs by LC-MS/MS method; assay type: ADME, organism-based; settings: in vivo
[18] = target: T1, Mitogen-activated protein kinase; ERK1/ERK2; settings: KYSE520, time 1.0 hrs; remark: listed apart in the source
[19] = Oral bioavailability in CD-1 mouse at 10 mg/kg measured upto 24 hrs by LC-MS/MS method; assay type: ADME, organism-based; settings: in vivo

CLint scaled at […] [1]: 9 mL/min/kg | clearance [2]: 19.2 mL/min/kg | CLint scaled [4]: 28 mL/min/kg | CLint scaled at […] [5]: 35 mL/min/kg | fIC50 [6]: 0.06 µg/mL | fIC90 [6]: 0.535 µg/mL | AUC(0-inf) [7]: 5780 ng·h/mL | Vd [8]: 1.74 L/kg | Papp A→B at 2 h [11]: 11 ×10⁻⁶ cm/s | Cmax [12]: 649 ng/mL | solubility at 24 h [13]: 271 µg/mL (≈ 552 µM) | IC50 [14]: 5 nM | CLint scaled at 10000 µM [15]: 11 mL/min/kg | half-life [16]: 1.44 h | Tmax [17]: 4 h | fIC50 [18]: 0.06 µg/mL | fIC90 [18]: 0.535 µg/mL | bioavailability [19]: 66.5%
Structure (SMILES): Nc1nccc(Sc2ccc3nc(N4CCC5(CC4)Cc4ncccc4[C@H]5N)cnc3n2)c1Cl
TGI [3]: 38% | Activity [9]: < 5% | TGI [10]: 75%
